Measured values from patent US11987576B2, “Compositions and methods for decreasing, or preventing or reversing gain of, skin pigmentation in a mammalian subject” (THE TRUSTEES OF THE UNIVERSITY OF PENNSYLVANIA, priority 2015, dated 2024).

Assays:
[1] = test system: 3-D organotypic skin; test: Fontana-Masson melanin staining of 3-D organotypic skin; type: cell-based, human; details: vs vehicle
[2] = target: T1, PR (Homo sapiens, UniProt P06401); details: cited from earlier work
T1 sequence (P06401 1-933): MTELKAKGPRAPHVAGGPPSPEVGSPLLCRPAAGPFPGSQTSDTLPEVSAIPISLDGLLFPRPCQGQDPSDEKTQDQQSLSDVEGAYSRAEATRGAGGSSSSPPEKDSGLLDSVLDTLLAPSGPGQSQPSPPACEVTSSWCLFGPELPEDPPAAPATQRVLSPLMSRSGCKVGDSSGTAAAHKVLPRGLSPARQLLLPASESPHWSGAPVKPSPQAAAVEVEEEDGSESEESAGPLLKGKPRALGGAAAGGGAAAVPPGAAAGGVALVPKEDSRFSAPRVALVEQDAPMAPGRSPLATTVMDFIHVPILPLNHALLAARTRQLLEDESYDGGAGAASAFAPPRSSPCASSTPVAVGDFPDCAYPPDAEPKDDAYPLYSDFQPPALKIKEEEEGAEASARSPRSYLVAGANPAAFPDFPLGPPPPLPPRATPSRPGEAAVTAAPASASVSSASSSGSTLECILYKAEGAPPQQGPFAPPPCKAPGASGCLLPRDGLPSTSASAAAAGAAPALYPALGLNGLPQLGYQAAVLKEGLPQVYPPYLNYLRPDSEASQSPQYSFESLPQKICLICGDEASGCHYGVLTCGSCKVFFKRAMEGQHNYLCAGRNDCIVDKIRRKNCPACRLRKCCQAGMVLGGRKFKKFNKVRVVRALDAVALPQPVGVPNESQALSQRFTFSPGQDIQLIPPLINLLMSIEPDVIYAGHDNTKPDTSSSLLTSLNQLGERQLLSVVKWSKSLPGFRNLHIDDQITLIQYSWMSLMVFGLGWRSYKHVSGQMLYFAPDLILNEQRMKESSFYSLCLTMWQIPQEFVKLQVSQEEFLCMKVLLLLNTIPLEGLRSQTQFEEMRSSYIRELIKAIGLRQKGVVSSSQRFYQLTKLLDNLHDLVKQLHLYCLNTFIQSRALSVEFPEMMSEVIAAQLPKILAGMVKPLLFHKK

[3] = test system: ER; details: cited from earlier work
[4] = test system: 3-D organotypic skin; test: MITF immunohistochemistry of organotypic skin (melanocyte population density); type: cell-based, human; details: vs vehicle
From the text: Formalin fixed paraffin embedded (FFPE) human skin tissue sections from organotypic tissue was stained for MITF protein expression using a primary antibody to MITF (Leica Biosystems, NCL-L-MITF, 1:15).

[5] = test system: cAMP; test: cAMP ELISA on primary human melanocytes; type: cell-based
Protocol: cAMP ELISA was performed on primary human melanocytes using the Cyclic AMP XP Assay Kit (Cell Signaling Technology, #4339) following manufacturer instructions.

[6] = test system: pCREB and MITF; test: Western blot of classical melanin pathway regulators in melanocytes; type: cell-based, human; details: 1 μM overnight
Protocol: Adherent cells were treated with 1 μM doses of E2 and P4 overnight, washed once with DPBS, and lysed with 1% NP-40 buffer (150 mM NaCl, 50 mM Tris, pH 7.5, 1 mM EDTA, and 1% NP-40) containing 1× protease inhibitors (Roche) and 1× phosphatase inhibitors (Roche). Lysates were quantified (Bradford assay), normalized, reduced, denatured (95° C.) and resolved by SDS gel electrophoresis on 4-15% Tris/Glycine gels (Bio-Rad). Resolved protein was transferred to PVDF membranes (Millipore) using a Semi-Dry Transfer Cell (Bio-Rad), blocked in 5% dry milk in TBS-T and probed with primary antibodies recognizing MITF (Cell Signaling Technology, #12590, 1:1000), pCREB (Cell Signaling Technology, #9198, 1:1000), CREB (Cell Signaling Technology, #9104, 1:1000), and β-Actin (Cell Signaling Technology, #3700, 1:4000). After incubation with the appropriate secondary antibody, proteins were detected using either Luminata Crescendo Western HRP Substrate (Millipore) or ECL Western Blotting Analysis System (GE Healthcare).

C=C[C@]12CCC(=O)C=C1CC[C@H]1[C@@H]3CC[C@H](C(C)=O)[C@@]3(C)CC[C@@H]12 (relative stereo) [CH2P4, rel-(8S,9S,10S,13 S,14S,17S)-17-acetyl-13-methyl-10-vinyl-6,7,8,9,10,11,12,13,14,15,16,17-dodecahydro-1H-cyclopenta[a]phenanthren-3 (2H)-one]
melanin production in skin tissue [1]: decrease in melanin production
binding to PR [2]: does not bind

Brc1cc2c(cc1[C@H]1Nc3ccccc3[C@@H]3C=CC[C@H]13)OCO2 (relative stereo) [G-15, rel-(3aS,4S,9bR)-4-(6-bromobenzo[d][1,3]dioxol-5-yl)-3a,4,5,9b-tetrahydro-3H-cyclopenta[c]quinoline]
inhibitory activity against ER [3]: do not have inhibitory activity

CC(=O)[C@H]1CC[C@H]2[C@@H]3CCC4=CC(=O)CC[C@]4(C)[C@H]3CC[C@]12C [progesterone]
melanin production in skin tissue [1]: decreased melanin production by nearly half
total melanocyte number or density [4]: without affecting overall melanocyte cell number
cAMP [5]: decreases
MITF protein [6]: decreases
pCREB protein [6]: decreases
